Measurements from patent publication US20260356856A1, “KRAS G12S AND G12C INHIBITORS” (MIRATI THERAPEUTICS, INC., priority 2023, published 2026).

Assays:
[1] = target: T1, KRas-mediated phosphorylation of ERK in A549 cells (Homo sapiens, UniProt P01116, G12S); experiment: Inhibition of KRas-mediated phosphorylation of ERK (HTRF), A549 cells; type: cell-based; conditions: HTRF pERK, 3 h incubation
T1 construct: pERK HTRF read-out

KRas WT = target: T2, KRas WT (Homo sapiens, UniProt P01116); experiment: KRas binding assay, TR-FRET displacement of Cy5 labelled tracer; conditions: 60-minute incubation at room temperature, 1% DMSO, pH 7.5
T2 construct: Biotinylated KRas (corresponding to amino acids 1-169, produced at Accelegan Inc.); biotin (biotinylated); purchased Accelegan Inc
Description: (§1) This Example illustrates that exemplary compounds of the present invention bind to KRas and are capable of displacing a labeled tracer ligand occupying the KRas binding site. KRas^WT, KRas^G12A, KRas^G12C, KRas^G12D, KRas^G12R, KRas^G12S, KRas^G12V, KRas^G13D, or KRas^Q61H was used in the assay.
(§2) The ability of a compound to bind to KRas was measured using a TR-FRET displacement assay. Biotinylated KRas (corresponding to amino acids 1-169, produced at Accelegan Inc.) was incubated with custom made Cy5 labelled tracer, terbium streptavidin (Cisbio Inc.) and compound (1% DMSO final) in buffer (50 mM HEPES, pH 7.5, 5 mM MgCl2, 0.005% Tween-20 and 1 mM DTT). After a 60-minute incubation at room temperature, the reaction was measured using a BMG LABTECH CLARIO star Plus via TR-FRET. […] The POC values were fit to a 4-parameter IC50 equation and the IC50 value reported.

KRas G12C = target: T3, KRas G12C (Homo sapiens, UniProt P01116, G12C); experiment: as above; conditions: 60-minute incubation at room temperature, 1% DMSO, pH 7.5
T3 construct: Biotinylated KRas (corresponding to amino acids 1-169, produced at Accelegan Inc.); biotin (biotinylated); purchased Accelegan Inc
Description: as §1, §2

KRas G12S = target: T4, KRas G12S (Homo sapiens, UniProt P01116, G12S); experiment: as above; conditions: 60-minute incubation at room temperature, 1% DMSO, pH 7.5
T4 construct: Biotinylated KRas (corresponding to amino acids 1-169, produced at Accelegan Inc.); biotin (biotinylated); purchased Accelegan Inc
Description: as §1, §2

[2] = target: T5, KRas-mediated phosphorylation of ERK in MKN1 cells (Homo sapiens, UniProt P01116); experiment: Inhibition of KRas-mediated phosphorylation of ERK (HTRF), MKN1 cells; type: cell-based; conditions: MKN1 cells (KRas WT); HTRF pERK; 3 h incubation
T5 construct: pERK HTRF read-out
Description: Inhibition of KRas Phosphorylation of ERK (HTRF) by Exemplary Compounds of Formula (Ia) or (Ib)
Cisbio HTRF Advanced pERK Assay Catalog #64AERPEH • Cells: MKN1, PSN1 • Procedure: • 1. Day 1: Seed 6,000 cells/well −25 μl/well in 384-well white solid bottom plate; RPM1_10% FBS. Incubate overnight at 37 °C/5% CO2. • 2.

T2 sequence (P01116 1-169 isoform P01116-2): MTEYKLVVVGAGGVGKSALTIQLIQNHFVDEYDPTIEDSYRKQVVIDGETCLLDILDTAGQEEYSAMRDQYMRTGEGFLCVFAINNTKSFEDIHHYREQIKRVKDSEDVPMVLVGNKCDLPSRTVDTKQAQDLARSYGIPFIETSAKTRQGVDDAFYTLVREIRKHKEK
T4 sequence (P01116 1-169 isoform P01116-2 G12S): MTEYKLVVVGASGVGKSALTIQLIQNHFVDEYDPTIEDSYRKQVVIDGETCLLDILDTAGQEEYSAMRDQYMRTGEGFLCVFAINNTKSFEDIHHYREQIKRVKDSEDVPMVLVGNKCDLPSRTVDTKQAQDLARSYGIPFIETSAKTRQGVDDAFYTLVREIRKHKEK
T3 sequence (P01116 1-169 isoform P01116-2 G12C): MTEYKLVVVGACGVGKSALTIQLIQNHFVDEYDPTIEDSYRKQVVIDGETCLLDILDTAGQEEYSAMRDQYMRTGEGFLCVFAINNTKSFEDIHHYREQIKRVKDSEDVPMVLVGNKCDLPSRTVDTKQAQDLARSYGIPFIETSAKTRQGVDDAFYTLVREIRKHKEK
T1 sequence (P01116 1-188 isoform P01116-2 G12S): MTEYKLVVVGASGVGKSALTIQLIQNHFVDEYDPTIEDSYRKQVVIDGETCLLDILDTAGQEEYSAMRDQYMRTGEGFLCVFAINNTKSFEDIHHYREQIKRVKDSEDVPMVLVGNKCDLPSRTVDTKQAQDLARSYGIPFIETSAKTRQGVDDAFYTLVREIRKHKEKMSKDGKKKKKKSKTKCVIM
T5 sequence (P01116 1-188 isoform P01116-2): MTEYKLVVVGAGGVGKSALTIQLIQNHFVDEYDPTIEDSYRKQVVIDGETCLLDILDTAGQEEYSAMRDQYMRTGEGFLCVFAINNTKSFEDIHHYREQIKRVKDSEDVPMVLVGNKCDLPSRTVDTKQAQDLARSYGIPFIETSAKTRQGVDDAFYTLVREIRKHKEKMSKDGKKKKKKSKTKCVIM

| Compound | IC50 [1] [nM] | IC50 (KRas WT) [nM] | IC50 (KRas G12C) [nM] | IC50 (KRas G12S) [nM] | IC50 [2] [nM] |
| --- | --- | --- | --- | --- | --- |
| CCc1c(F)ccc2cc(O)cc(-c3ncc4c(N5CCN(C(=O)n6ccc(C)n6)C(CC#N)C5)nc(OC[C@@]56CCCN5C[C@H](F)C6)nc4c3F)c12 (stereo partly drawn) [Example 126, 2-(4-(7-(8-ethyl-7-fluoro-3-hydroxynaphthalen-1-yl)-8-fluoro-2-(((2R,7aS)-2-fluorotetrahydro-1H-pyrrolizin-7a(5H)-yl)methoxy)pyrido[4,3-d]pyrimidin-4-yl)-1-(3-methyl-1H-pyrazole-1-carbonyl)piperazin-2-yl) acetonitrile] | 9800 | 8 | 84 | 88 |  |
| O=C[C@@H]1[C@@H]2CC[C@H]1CN(c1nc(OCC34CCCN3CCC4)nc3c(F)c(-c4cccc5cccc(F)c45)ncc13)C2 [Example 17, (1R,5S,8r)-3-(8-fluoro-7-(8-fluoronaphthalen-1-yl)-2-((tetrahydro-1H-pyrrolizin-7a(5H)-yl)methoxy)pyrido[4,3-d]pyrimidin-4-yl)-3-azabicyclo[3.2.1]octane-8-carbaldehyde] |  | 5780 | 1080 | 15300 |  |
| O=C(Oc1c(F)cccc1F)[C@@H]1[C@@H]2CC[C@H]1CN(c1nc(OCC34CCCN3CCC4)nc3c(F)c(-c4cccc5cccc(F)c45)ncc13)C2 [Example 24, 2,6-difluorophenyl (1R,5S,8r)-3-(8-fluoro-7-(8-fluoronaphthalen-1-yl)-2-((tetrahydro-1H-pyrrolizin-7a(5H)-yl)methoxy)pyrido[4,3-d]pyrimidin-4-yl)-3-azabicyclo[3.2.1]octane-8-carboxylate] |  | 17700 | 30500 | > 100000 |  |
| COC(=O)[C@H]1CCN(c2nc(OCC34CCCN3CCC4)nc3c(F)c(-c4cccc5cccc(F)c45)ncc23)C[C@H]1O [Example 46, methyl (3S,4S)-1-(8-fluoro-7-(8-fluoronaphthalen-1-yl)-2-((tetrahydro-1H-pyrrolizin-7a(5H)-yl)methoxy)pyrido[4,3-d]pyrimidin-4-yl)-3-hydroxypiperidine-4-carboxylate] |  | > 100000 | > 100000 | > 100000 |  |
| N#Cc1ccc(OC(=O)C2CCN(c3nc(OCC45CCCN4CCC5)nc4c(F)c(-c5cccc6cccc(F)c56)ncc34)CC2)cc1 [Example 29, 4-cyanophenyl 1-(8-fluoro-7-(8-fluoronaphthalen-1-yl)-2-((tetrahydro-1H-pyrrolizin-7a(5H)-yl)methoxy)pyrido[4,3-d]pyrimidin-4-yl)piperidine-4-carboxylate] |  | 90500 | 201 | > 100000 |  |
| O=C(Oc1ccc(F)c(F)c1)[C@@H]1CCN(c2nc(OCC34CCCN3CCC4)nc3c(F)c(-c4cccc5cccc(F)c45)ncc23)C[C@@H]1O [Example 37, 3,4-difluorophenyl (3R,4R)-1-(8-fluoro-7-(8-fluoronaphthalen-1-yl)-2-((tetrahydro-1H-pyrrolizin-7a(5H)-yl)methoxy)pyrido[4,3-d]pyrimidin-4-yl)-3-hydroxypiperidine-4-carboxylate] |  | 20400 | 7290 | 20400 |  |
| COC(=O)[C@@H]1CCN(c2nc(OCC34CCCN3CCC4)nc3c(F)c(-c4cccc5cccc(F)c45)ncc23)C[C@@H]1O [Example 47, methyl (3R,4R)-1-(8-fluoro-7-(8-fluoronaphthalen-1-yl)-2-((tetrahydro-1H-pyrrolizin-7a(5H)-yl)methoxy)pyrido[4,3-d]pyrimidin-4-yl)-3-hydroxypiperidine-4-carboxylate] |  | > 100000 | > 100000 | > 100000 |  |
| O=C(Oc1ccc(F)cc1)C1CCN(c2nc(OCC34CCCN3CCC4)nc3c(F)c(-c4cccc5cccc(F)c45)ncc23)CC1 [Example 14, 4-fluorophenyl 1-(8-fluoro-7-(8-fluoronaphthalen-1-yl)-2-((tetrahydro-1H-pyrrolizin-7a(5H)-yl)methoxy)pyrido[4,3-d]pyrimidin-4-yl)piperidine-4-carboxylate] |  | 45000 | 877 | > 100000 |  |
| O=C(Oc1cc(F)cc(F)c1)C1CCN(c2nc(OCC34CCCN3CCC4)nc3c(F)c(-c4cccc5cccc(F)c45)ncc23)CC1 [Example 33, 3,5-difluorophenyl 1-(8-fluoro-7-(8-fluoronaphthalen-1-yl)-2-((tetrahydro-1H-pyrrolizin-7a(5H)-yl)methoxy)pyrido[4,3-d]pyrimidin-4-yl)piperidine-4-carboxylate] |  | > 100000 | 10700 | > 100000 |  |
| Cc1ccn(C(=O)[C@H]2CCCN(c3nc(OC[C@@]45CCCN4C[C@H](F)C5)nc4c(F)c(-c5ccc(F)c6sc(N)c(C#N)c56)c(Cl)cc34)CC2)n1 (atropisomer, axis not shown; (aS)) [Example 169, 2-amino-4-((R)-6-chloro-8-fluoro-2-(((2R,7aS)-2-fluorotetrahydro-1H-pyrrolizin-7a(5H)-yl)methoxy)-4-((S)-4-(3-methyl-1H-pyrazole-1-carbonyl)azepan-1-yl)quinazolin-7-yl)-7-fluorobenzo [b]thiophene-3-carbonitrile] | 534 |  |  |  | 9480 |
| O=C(Oc1ccccc1)[C@@H]1[C@@H]2CC[C@H]1CN(c1nc(OCC34CCCN3CCC4)nc3c(F)c(-c4cccc5cccc(F)c45)ncc13)C2 [Example 26, phenyl (1R,5S,8r)-3-(8-fluoro-7-(8-fluoronaphthalen-1-yl)-2-((tetrahydro-1H-pyrrolizin-7a(5H)-yl)methoxy)pyrido[4,3-d]pyrimidin-4-yl)-3-azabicyclo[3.2.1]octane-8-carboxylate] |  | 10600 | 92800 | 75600 |  |

Now from value to compound:

| IC50 [1] [nM] | IC50 (KRas WT) [nM] | IC50 (KRas G12C) [nM] | IC50 (KRas G12S) [nM] | IC50 [2] [nM] | Compound |
| --- | --- | --- | --- | --- | --- |
| 6810 | 84 | 96 | 168 |  | CCc1c(F)ccc2cc(O)cc(-c3ncc4c(N5CCN(C(=O)n6ccc(C)n6)C(C(F)F)C5)nc(OC[C@@]56CCCN5C[C@H](F)C6)nc4c3F)c12 (stereo partly drawn) [Example 125, (2-(difluoromethyl)-4-(7-(8-ethyl-7-fluoro-3-hydroxynaphthalen-1-yl)-8-fluoro-2-(((2R,7aS)-2-fluorotetrahydro-1H-pyrrolizin-7a(5H)-yl)methoxy)pyrido[4,3-d]pyrimidin-4-yl)piperazin-1-yl)(3-methyl-1H-pyrazol-1-yl)methanone] |
| 6440 |  |  |  | 3040 | Cc1ccn(C(=O)[C@@H]2CCCN(c3nc(OC[C@@]45CCCN4C[C@H](F)C5)nc4c(F)c(-c5ccc(F)c6sc(N)c(C#N)c56)c(Cl)cc34)CC2)n1 (atropisomer, axis not shown; (aS)) [Example 171, 2-amino-4-((R)-6-chloro-8-fluoro-2-(((2R,7aS)-2-fluorotetrahydro-1H-pyrrolizin-7a(5H)-yl)methoxy)-4-((R)-4-(3-methyl-1H-pyrazole-1-carbonyl)azepan-1-yl)quinazolin-7-yl)-7-fluorobenzo[b]thiophene-3-carbonitrile] |
|  | > 100000 | 724 | 74700 |  | N#Cc1cccc(OC(=O)C2CCN(c3nc(OCC45CCCN4CCC5)nc4c(F)c(-c5cccc6cccc(F)c56)ncc34)CC2)c1 [Example 28, 3-cyanophenyl 1-(8-fluoro-7-(8-fluoronaphthalen-1-yl)-2-((tetrahydro-1H-pyrrolizin-7a(5H)-yl)methoxy)pyrido[4,3-d]pyrimidin-4-yl)piperidine-4-carboxylate] |
|  | 11800 | 34800 | 61600 |  | O=C(Oc1ccc(F)c(F)c1)[C@@H]1[C@@H]2CC[C@H]1CN(c1nc(OCC34CCCN3CCC4)nc3c(F)c(-c4cccc5cccc(F)c45)ncc13)C2 [Example 23, 3,4-difluorophenyl (1R,5S,8r)-3-(8-fluoro-7-(8-fluoronaphthalen-1-yl)-2-((tetrahydro-1H-pyrrolizin-7a(5H)-yl)methoxy)pyrido[4,3-d]pyrimidin-4-yl)-3-azabicyclo[3.2.1]octane-8-carboxylate] |
|  | 14700 | 27300 | 98800 |  | N#Cc1ccc(OC(=O)[C@@H]2[C@@H]3CC[C@H]2CN(c2nc(OCC45CCCN4CCC5)nc4c(F)c(-c5cccc6cccc(F)c56)ncc24)C3)cc1 [Example 20, 4-cyanophenyl (1R,5S,8r)-3-(8-fluoro-7-(8-fluoronaphthalen-1-yl)-2-((tetrahydro-1H-pyrrolizin-7a(5H)-yl)methoxy)pyrido[4,3-d]pyrimidin-4-yl)-3-azabicyclo[3.2.1]octane-8-carboxylate] |
